Reference: patent US7220827B2, “Compound binding to leukocytes and medicinal composition containing the compound in labeled state as the active ingredient” (Nihon Medi-Physics Co., Ltd., priority 2002, dated 2007)

Tested on: human leukocytes (granulocytes; lymphocytes and monocytes)
Assay: Distribution of Tc-99m labeled peptides in human blood (Percoll density gradient)
Type: cell-based
Conditions: incubation 30 minutes
Excerpt: In order to confirm clinical effectiveness of the peptide of the present invention in human, binding affinities to leukocytes of two types of peptides of the present invention were examined by using human blood. The peptide 3 and the peptide 6 labeled with Tc-99m in Example 2 were separated into unlabeled peptides and labeled peptides, and purified by reversed phase HPLC under the same conditions as of HPLC in Example 2. […]
The conventionally known peptides, Tc-99m-peptide 11 and Tc-99m-peptide 12, were prepared. Each of the peptide 11 and the peptide 12 was dissolved in dimethylformamide to prepare a solution having the concentration of 0.1 mg/500 μl. A solution of SnCl2/10 mM hydrochloric acid (5 mg/10 ml) 50 μl was added to a tartaric acid/PBS solution (5 mg/200 μl), and the peptide solution was added thereto. Then ^99mTcO4^− solution (2738 MBq/ml) 0.25 μl was infused immediately thereafter and shaken for several seconds to perform labeling reaction at 120° C. for 10 minutes. Final concentration was about 855.6 MBq/125 mg/ml. Purification and measurement of radiochemical purity were performed by using preparative HPLC. Analysis was performed under the same conditions as in Example 2, i.e. gradient: 20%→50% (0.1% TFA acetonitrile/0.1% TFA water); 0→20 minutes. Radioactivity concentration after the purification was 287–311 MBq/ml.
Subsequently, a Percoll density gradient solution was prepared based on the method described in Example 3.
Blood, 20–30 ml, was collected from adult volunteers, 40 years old or less. The Tc-99m labeled peptides, 30 μl (111 MBq/ml, 1.8×10^−11 mol/ml as Tc-peptide) each, were added thereto and incubated for 30 minutes. The blood sample 2–3 ml was layered over carefully to the prepared Percoll density gradient solution. After centrifugation at 2000 rpm (800×g) for 15 minutes, the tube was frozen and each fraction was cut off by using a cutter, then the radioactivity of each fraction was measured using Auto-Well Gamma Counter to determine the radioactivity distribution of Tc-99m-labeled peptides in the blood components.

In the case of Tc-99m-glucoheptonic acid, the “radioactivity distributed in the plasma fraction” value was 95.39%, the “radioactivity distribution in the granulocyte fraction” value was 1.11 % of the radioactivity in the whole blood and the “radioactivity distribution in the lymphocyte and monocyte fraction” value was 2.52 % of the radioactivity in the whole blood.
